Measurements published in patent US20130101628A1 (NORTHWESTERN UNIVERSITY, priority 2011, published 2013).
* marks the point of attachment. Palmitoyl = CCCCCCCCCCCCCCCC(=O)*

How the values were obtained:
[1] = biological target: T1, VEGF receptor 2 (VEGFR2 or KDR) (Homo sapiens, UniProt P35968); test: Sandwich ELISA of phosphorylated VEGFR2 in lysates of stimulated HUVEC; assay type: cell-based
T1 construct: host or cells: HUVEC
Description: Human umbilical vein endothelial cells (HUVECs) and complete endothelial cell growth media (EGM) were purchased (Genlantis, San Diego, Calif.), passaged two times following receipt, and cryo-preserved in media with 5% DMSO. Cells were thawed as needed and grown to confluence in a […] flasks (VWR Falcon) prior to plating for experiments.
Phosphorylation of both VEGFRI and VEGFR2 was assayed using commercially available assay kit (R&D Systems, Minneapolis, Minn.) following the recommended protocol. First, confluent HUVECs plated in 24 well plates were starved for 5 hours in serum-free defined media (SFDM, Genlantis) specifically designed to maintain cells in a growth factor-free setting for growth factor signaling and metabolic assays. Following starvation, the various treatments were dissolved in SFDM to a concentration of 1 μM. […] Cells were exposed to treatment for 2 minutes. To evaluate the time-course of phosphorylation the same protocol was followed and cells were exposed to VEGF-PA for 0, 1, 3, 5, 10, 15, 20, 25, 30, 40, 50, and 60 minutes.

ischemic hind-limb = test: Murine hind-limb ischemia (HLI) model; assay type: in vivo, mice; settings: for limb motor function score / tissue (limb) salvage score: single i.m. injection 25 μl of 2 mM; for limb motor function score: grade 1-5; for tissue (limb) salvage score: grade 1-6
Description: For the HLI procedure, eight week old male FVB wild-type mice (Charles River) were anesthetized by intraperitoneal injection of avertin (125 mg/kg). By means of a dissecting microscope, the femoral nerve was carefully separated from the vessel bundle. The right femoral artery was ligated and excised, including all superficial and deep branches. Critical limb ischemia was immediately verified by laser Doppler imaging (LDPI, MoorLDI-SIM, Moor Instruments, Ltd) to ensure the ratio (ischemic/non-ischemic limb) was ≦0.20. At postoperative day 3, outliers with low ischemia were triaged based on LDPI (ratio ischemic/nonischemic 0.30) as were outliers with extreme ischemia (necrotic demarcation of entire limb), determined by macroscopic evaluation. […] For follow-up, animals underwent reevaluations with LDPI at postoperative day 7, 14, and 28 before animals were sacrificed (CO, asphyxia) for tissue harvest at day 28. At each time-point, tissue perfusion was measured via LDPI, measuring blood flow in both the ischemic and non-ischemic limb and reporting results as the ratio of these two measurements. All LDPI measurements were taken on a 37° C. heating pad to control body temperature. In addition, motor function and tissue damage was semi-quantitatively assessed on post-operative day 7, 14, 21 and 28 by established scoring systems. Tissue damage in the ischemic limb (limb salvage score) was graded as full recovery (grade 6), minor necrosis or nail loss (grade 5), partial toe amputation (grade 4), total toe amputation (grade 3), partial/total foot amputation (grade 2) or partial/total limb amputation (grade 1) (modified from). Limb motor function was graded as unrestricted (grade 5), no active use of toe(s) or spreading (grade 4), restricted foot use (grade 3), no use of foot (grade 2) or no use of limb at all (grade 1) (modified from). Finally, walking capacity was measured via a Rota Rod apparatus. […] The mean of two assessments was used as for failure time for each animal. At day 28, muscle tissue from the ischemic limb was harvested, fixed in methanol, paraffin-embedded, and cross-sectioned (6-μm) for histological immunostaining. Briefly, sections were blocked with 10% donkey serum (30 min, RT). Primary antibodies were diluted in PBS containing BSA, and applied to tissue slices for 2 hrs at 37° C. Sections were stained for CD31, an endothelial-specific marker, using rat anti-CD31 antibodies (BD Pharmingen Inc) and smooth-muscle α-actin (αSMA), a vascular smooth muscle marker, using rabbit-anti-αSMA (Sigma-Aldrich Co.). For immunofluorescent detection, primary antibodies were resolved with Alexa-Fluor-conjugated secondary antibodies (Invitrogen Corporation, Carlsbad, Calif., USA dilution) and nuclei were counterstained with DAPI (Research Organics). Slides were imaged using fluorescent microscopy (Zeiss), and CD31+capillary forms and CD31+/sMA+]mature microvessels/arterioles were quantified in 3 separate high-power fields (20×) from 3 independent sections in each animal (9 images/animal). All error bars indicate the standard error of the mean. Differences between groups were determined using a one-way analysis of variance (ANOVA) with a Bonferroni multiple comparisons post-hoc test using GraphPad InStat v3.0b. […] VEGF-PA or control treatments were administered by an intramuscular injection three days following the induction of critical ischemia by ligation and excision of the right femoral artery and all superficial and deep branches, as described above. Animals were assessed serially throughout the study for motor function and limb salvage and Laser Doppler perfusion imaging (LDPI) was used to assess tissue perfusion. At the end of the study, exercise endurance was recorded on a Rota Rod treadmill and tissue was harvested for immunohistological staining of capillaries to observe effects on the microcirculation.

HUVECs = test: HUVEC survival after serum-starvation (Annexin V-PE apoptosis); assay type: cell-based, human; settings: 1 μM in EBM, serum-starvation 24 hours; untreated 31.7%
Description: To evaluate cell survival, endothelial basal media (EBM) without growth factors (Lonza) was used to induce a serum-starvation. Cells were plated in 12 well plates and grown to confluence with standard growth media. […] Cells were grown in these conditions for 24 hours. Survival was quantified using Annexin V: PE staining with 7-AAD vital staining (BD Biosciences) following provided assay instructions and analyzed on a DakoCytomation CyAn. Survival was assessed by determining the fraction of cells that were apoptotic (Annexin V-PE positive).

[2] = test system: chicken chorioallantoic membrane (CAM); test: Shell-less chicken chorioallantoic membrane (CAM) angiogenesis assay; assay type: in vivo; settings: 2 mM in PBS dried on coverslip, three days following treatment; saline 132%
Text: An established assay reflecting in vivo angiogenesis, the chicken chorioallantoic membrane (CAM) assay, was used to evaluate the angiogenic potential of the VEGF-PA of the present examples. This assay utilizes the extra-embryonic allantois, a tissue derived from the mesoderm that develops into a densely vascularized membrane. A common deviation from the traditional assay is to remove the shell and conduct the assay on a shell-less embryo, termed the shell-less CAM assay, as we have performed here. Fertilized white leghorn chicken eggs (Phil's Fresh Eggs, Forreston, Ill.) were received and cultured in a temperature controlled, humidified egg incubator. On embryonic day 3, eggs were cracked within a sterile tissue culture hood into round 100 mm petri dishes. Fertilized embryos were then transferred to a water-jacketed CO2 incubator, set to 37.5° C., 1% CO2 and 100% relative humidity. On embryonic day 10, the material treatment was dissolved at 2 mM in PBS, evaporated onto the surface of a 5 mm round glass cover slip, and placed facing down on top of the CAM (n=16/group). Digital images were captured through the eyepiece of a Nikon stereomicroscope and vessel density was quantified by the number of intersections of vessel structures with the edge of the cover slip and expressed relative to the initial time-point. Images were captured daily, beginning at embryonic day 10 and culminating on embryonic day 13, the standard range over which the CAM assay is performed. Additionally, images were assessed qualitatively for morphological differences in the CAM vasculature including spoking, branching and leakage.

T1 sequence (P35968 20-1356): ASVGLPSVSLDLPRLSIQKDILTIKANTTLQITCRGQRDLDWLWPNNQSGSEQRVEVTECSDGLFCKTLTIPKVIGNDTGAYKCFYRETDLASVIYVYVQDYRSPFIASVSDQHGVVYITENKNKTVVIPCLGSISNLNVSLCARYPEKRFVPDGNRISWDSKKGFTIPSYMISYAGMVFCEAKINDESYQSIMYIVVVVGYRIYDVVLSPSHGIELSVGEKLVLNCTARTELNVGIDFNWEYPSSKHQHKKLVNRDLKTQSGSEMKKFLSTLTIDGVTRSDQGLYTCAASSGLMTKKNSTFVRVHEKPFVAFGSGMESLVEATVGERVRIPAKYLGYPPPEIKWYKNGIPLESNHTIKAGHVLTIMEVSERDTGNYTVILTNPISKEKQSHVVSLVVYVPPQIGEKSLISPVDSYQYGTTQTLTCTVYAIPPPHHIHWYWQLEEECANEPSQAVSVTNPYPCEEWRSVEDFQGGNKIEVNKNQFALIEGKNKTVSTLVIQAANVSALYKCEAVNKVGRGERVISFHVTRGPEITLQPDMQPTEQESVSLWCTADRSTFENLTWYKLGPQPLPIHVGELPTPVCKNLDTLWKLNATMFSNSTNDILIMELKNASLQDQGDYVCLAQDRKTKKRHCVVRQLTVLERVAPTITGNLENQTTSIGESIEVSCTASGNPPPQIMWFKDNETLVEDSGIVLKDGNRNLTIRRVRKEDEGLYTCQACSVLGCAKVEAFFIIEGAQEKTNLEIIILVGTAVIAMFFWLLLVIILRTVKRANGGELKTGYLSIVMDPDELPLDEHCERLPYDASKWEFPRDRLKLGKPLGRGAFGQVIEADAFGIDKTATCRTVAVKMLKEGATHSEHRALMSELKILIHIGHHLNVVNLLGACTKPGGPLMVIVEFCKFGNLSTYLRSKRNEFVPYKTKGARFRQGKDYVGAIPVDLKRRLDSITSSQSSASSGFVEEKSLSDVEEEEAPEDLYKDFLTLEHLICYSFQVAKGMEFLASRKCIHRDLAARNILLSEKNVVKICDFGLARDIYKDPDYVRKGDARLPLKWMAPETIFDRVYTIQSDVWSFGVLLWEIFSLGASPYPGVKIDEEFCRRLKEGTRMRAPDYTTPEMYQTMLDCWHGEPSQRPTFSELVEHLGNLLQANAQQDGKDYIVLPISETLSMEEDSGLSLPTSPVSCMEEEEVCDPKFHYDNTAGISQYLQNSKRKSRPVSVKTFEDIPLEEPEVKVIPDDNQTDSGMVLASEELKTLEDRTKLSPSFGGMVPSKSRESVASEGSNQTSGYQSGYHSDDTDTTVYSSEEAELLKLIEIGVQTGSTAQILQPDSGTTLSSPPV

Substance: CH3(CH2)14C(O)— VVAAKKKGKLTWQELYQLKYKGI-NH2 (Palmitoyl-VVAAKKKGKLTWQELYQLKYKGI-NH2; SMILES CCCCCCCCCCCCCCCC(=O)N[C@H](C(=O)N[C@H](C(=O)N[C@@H](C)C(=O)N[C@@H](C)C(=O)N[C@@H](CCCCN)C(=O)N[C@@H](CCCCN)C(=O)N[C@@H](CCCCN)C(=O)NCC(=O)N[C@@H](CCCCN)C(=O)N[C@@H](CC(C)C)C(=O)N[C@H](C(=O)N[C@@H](Cc1c[nH]c2ccccc12)C(=O)N[C@@H](CCC(N)=O)C(=O)N[C@@H](CCC(=O)O)C(=O)N[C@@H](CC(C)C)C(=O)N[C@@H](Cc1ccc(O)cc1)C(=O)N[C@@H](CCC(N)=O)C(=O)N[C@@H](CC(C)C)C(=O)N[C@@H](CCCCN)C(=O)N[C@@H](Cc1ccc(O)cc1)C(=O)N[C@@H](CCCCN)C(=O)NCC(=O)N[C@H](C(N)=O)[C@@H](C)CC)[C@@H](C)O)C(C)C)C(C)C) [VEGF-PA]
- time of stimulation at which phosphorylated VEGFR2 begins to decrease after initial rise ([1]; HUVEC time-course 0-60 minutes, falls below untreated baseline): 10 min
- VEGFR2 phosphorylation level relative to untreated control ([1]; HUVEC, 1 μM, 2 minutes exposure, untreated control 1.000±0.109): 1.581±0.050
- LDPI perfusion ratio (ischemic/non-ischemic limb) (ischemic hind-limb; 14 days after induction of ischemia): 0.76±0.05
- limb motor function score (ischemic hind-limb; day 21): 3.89±0.12
- tissue (limb) salvage score (ischemic hind-limb; day 21): 4.21±0.21
- LDPI perfusion ratio (ischemic/non-ischemic limb) (ischemic hind-limb; day 28): 0.72±0.05
- Rota Rod walking time prior to failure (ischemic hind-limb; day 28, saline 90.4 seconds): 150.5 ± 9.5 s
- limb motor function score (ischemic hind-limb; day 28): 4.21±0.16
- tissue (limb) salvage score (ischemic hind-limb; day 28): 4.21±0.21
- effect on the number of CD31+/smooth muscle actin+ arterioles (ischemic hind-limb; tissue harvested at day 28): no effect
- number of CD31+ capillaries in ischemic limb muscle (ischemic hind-limb; tissue harvested at day 28, saline 893/mm2): 1582±76 /mm2
- fraction of apoptotic cells (Annexin V-PE positive) (HUVECs): 10.2%±3.2%
- blood vessels relative to the initial value [2]: 229%±19%
